US20120202856A1, “SUBSTITUTED BENZIMDAZOLE DERIVATIVES USEFUL AS TRPM8 RECEPTOR MODULATORS” (priority 2011, published 2012)
“And” between values parts separate entries of the source, which are not always exact repeats. Equal values may be shown once. Where a name gives a salt, the structure may show the parent alone.

Target: T1, canine TRPM8 (Canis lupus familiaris, UniProt Q1A7N1)
T1 construct: expressed in transfected cells
Assay: In Vitro Canine TRPM8 Functional Assay (intracellular Ca2+ fluorescence, icilin activation, HEK293 cells)
Type: cell-based
Details: for IC50: HEK293 cells expressing canine TRPM8, icilin activation, individually measured values (batches/salt forms), read-out: IC50 (nM), in vitro TRP M8 Activity; for inhibition at 0.2 µM: HEK293, 0.2 μM test compound, individually measured values, read-out: % Inh (%) @0.2 μM, in vitro TRP M8 Activity
Protocol: The changes in fluorescent signal were monitored by a fluorescence plate reader, either a FLIPR™ (Molecular Devices) or FDSS (Hamamatsu). […] Cells were maintained in 5% CO2 at 37° C. At 24 hr prior to assay, cells were seeded in black wall, clear-base poly-D-lysine coated 384-well plates (BD Biosciences, NJ, USA) at a density of 5,000 cells per well in culture medium and grown overnight in 5% CO2 at 37° C. On assay day, growth media was removed, and cells were loaded with Calcium 3 Dye (Molecular Devices) for 35 min at 37° C., under 5% CO2 and then incubated for 25 min at room temperature and atmosphere. Subsequently, cells were tested for agonist-induced increases in intracellular Ca^2+ levels using FLIPR™ or FDSS. […] Maximal fluorescence intensity (FI) achieved upon addition of icilin was exported from the FLIPR™ or FDSS software and further analyzed using GraphPad Prism 3.02 (Graph Pad Software Inc., CA, U.S.A.). Basal FI was subtracted prior to normalizing data to percent of maximal response. Curves were generated using the average of quadruplicate wells for each data point using nonlinear regression of either sigmoidal dose response or sigmoidal dose response (variable slope). Finally, IC50 values were calculated with the best-fit curve determined by GraphPad Prism

T1 sequence (Q1A7N1 1-1104): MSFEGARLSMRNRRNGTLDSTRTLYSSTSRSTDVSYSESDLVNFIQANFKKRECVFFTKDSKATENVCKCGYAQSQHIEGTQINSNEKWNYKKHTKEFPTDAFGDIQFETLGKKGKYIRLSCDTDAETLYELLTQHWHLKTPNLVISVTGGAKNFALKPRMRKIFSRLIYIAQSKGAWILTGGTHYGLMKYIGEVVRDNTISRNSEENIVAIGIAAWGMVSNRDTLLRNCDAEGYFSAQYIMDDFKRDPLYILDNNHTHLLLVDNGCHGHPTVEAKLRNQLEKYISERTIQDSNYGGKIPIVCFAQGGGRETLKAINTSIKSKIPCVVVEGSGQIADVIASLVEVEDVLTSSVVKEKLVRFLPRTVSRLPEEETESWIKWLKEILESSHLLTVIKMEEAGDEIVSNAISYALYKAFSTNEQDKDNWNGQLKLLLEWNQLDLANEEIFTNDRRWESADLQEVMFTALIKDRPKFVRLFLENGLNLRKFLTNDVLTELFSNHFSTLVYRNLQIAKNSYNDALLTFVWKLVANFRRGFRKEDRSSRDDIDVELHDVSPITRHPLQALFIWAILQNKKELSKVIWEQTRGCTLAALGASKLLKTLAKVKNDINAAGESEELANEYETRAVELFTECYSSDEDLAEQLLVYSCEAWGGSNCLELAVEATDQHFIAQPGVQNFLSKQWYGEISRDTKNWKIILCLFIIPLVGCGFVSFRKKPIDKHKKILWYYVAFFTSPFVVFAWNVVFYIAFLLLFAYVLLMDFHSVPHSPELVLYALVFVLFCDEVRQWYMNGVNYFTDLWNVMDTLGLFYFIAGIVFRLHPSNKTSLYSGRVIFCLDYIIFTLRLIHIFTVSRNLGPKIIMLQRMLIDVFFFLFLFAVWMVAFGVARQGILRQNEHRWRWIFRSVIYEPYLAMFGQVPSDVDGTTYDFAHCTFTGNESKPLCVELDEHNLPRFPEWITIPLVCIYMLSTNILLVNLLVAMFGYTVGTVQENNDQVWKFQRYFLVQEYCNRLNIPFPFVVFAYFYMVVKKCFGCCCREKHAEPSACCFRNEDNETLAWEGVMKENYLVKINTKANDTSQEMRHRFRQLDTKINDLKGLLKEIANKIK

SMILES | IC50 | inhibition at 0.2 µM [%]
CC(C)(C)c1cc(-c2nc3cc(-c4ccccc4C(F)(F)F)ccc3[nH]2)n(Cc2ccccc2)n1 [Compound 48, 2-(5-tert-Butyl-2-benzyl-2H-pyrazol-3-yl)-5-(2-trifluoromethylphenyl)-1H-benzimidazole sodium salt] | 18.4 nM | 
CC(C)(C)c1cc(-c2nc3cc(-c4ccccc4OC(F)(F)F)ccc3[nH]2)n(Cc2ccccc2)n1 [Compound 49, 2-(5-tert-Butyl-2-benzyl-2H-pyrazol-3-yl)-5-(2-trifluoromethoxyphenyl)-1H-benzimidazole sodium salt] | 42.3 nM | 
Cn1nc(C2(C)CC2)cc1-c1nc2cc(-c3ccccc3C(F)(F)F)ccc2[nH]1 [Compound 52, 2-[2-Methyl-5-(1-methylcyclopropyl)-2H-pyrazol-3-yl]-5-(2-trifluoromethylphenyl)-1H-benzimidazole sodium salt] | 17.6 nM | 
Cn1nc(C2(C)CC2)cc1-c1nc2cc(-c3ccccc3OC(F)(F)F)ccc2[nH]1 [Compound 53, 2-[2-Methyl-5-(1-methylcyclopropyl)-2H-pyrazol-3-yl]-5-(2-trifluoromethoxyphenyl)-1H-benzimidazole sodium salt] | 41.7 nM | 
COc1cccc(OC)c1-c1ccc2[nH]c(-c3cc(C(C)(C)C)nn3C)nc2c1 [Compound 54, 2-(5-tert-Butyl-2-methyl-2H-pyrazol-3-yl)-5-(2,6-dimethoxy-phenyl)-1H-benzimidazole trifluoroacetic acid salt] | 3.1 nM | 
Cn1nc(C(C)(C)C)cc1-c1nc2cc(-c3ccccc3C#N)ccc2[nH]1 [Compound 60, 2-[2-(5-tert-Butyl-2-methyl-2H-pyrazol-3-yl)-1H-benzimidazol-5-yl]-benzonitrile trifluoroacetic acid salt] | 11.9 nM | 
COc1cccc(OC)c1-c1ccc2[nH]c(-c3cc(C(C)(C)C)no3)nc2c1 [Compound 63, 2-(3-tert-Butyl-isoxazol-5-yl)-5-(2,6-dimethoxy-phenyl)-1H-benzimidazole trifluoroacetic acid salt] | 5.5 nM | 
COc1cccc(F)c1-c1ccc2[nH]c(-c3cc(C(C)(C)C)no3)nc2c1 [Compound 64, 2-(3-tert-Butyl-isoxazol-5-yl)-5-(2-fluoro-6-methoxy-phenyl)-1H-benzimidazole trifluoroacetic acid salt] | 8.7 nM | 
Cc1ccccc1-c1ccc2[nH]c(-c3cc(C(C)(C)C)no3)nc2c1 [Compound 65, 2-(3-tert-Butyl-isoxazol-5-yl)-5-o-tolyl-1H-benzimidazole trifluoroacetic acid salt] | 15.5 nM | 
CC(C)(C)c1cc(-c2nc3cc(-c4ccccc4F)ccc3[nH]2)on1 [Compound 66, 2-(3-tert-Butyl-isoxazol-5-yl)-5-(2-fluoro-phenyl)-1H-benzimidazole trifluoroacetic acid salt] | 24 nM and 35.7 nM | 
CC(C)(C)c1cc(-c2nc3cc(-c4c(F)cccc4F)ccc3[nH]2)on1 [Compound 67, 2-(3-tert-Butyl-isoxazol-5-yl)-5-(2,6-difluoro-phenyl)-1H-benzimidazole trifluoroacetic acid salt] | 15.3 nM and 16.7 nM | 
CC(C)(C)c1cc(-c2nc3cc(-c4ccccc4C#N)ccc3[nH]2)on1 [Compound 69, 2-[2-(3-tert-Butyl-isoxazol-5-yl)-1H-benzimidazol-5-yl]-benzonitrile trifluoroacetic acid salt] | 20.5 nM | 
COc1cccc(F)c1-c1ccc2[nH]c(-c3cnc(C(C)(C)C)n3C)nc2c1 [Compound 70, 2-(2-tert-Butyl-3-methyl-3H-imidazol-4-yl)-5-(2-fluoro-6-methoxy-phenyl)-1H-benzimidazole trifluoroacetic acid salt] | 134 nM | 
Cn1nc(C(C)(C)C)cc1-c1nc2cc(-c3ccccc3OC(F)F)ccc2[nH]1 [Compound 81, 2-(5-tert-Butyl-2-methyl-2H-pyrazol-3-yl)-5-(2-difluoromethoxyphenyl)-1H-benzimidazole hydrochloride] | 2 nM and 7 nM | 
CC(C)(C)c1cc(-c2nc3cc(-c4c(F)cccc4C(F)(F)F)ccc3[nH]2)on1 [Compound 82, 2-(3-tert-Butyl-isoxazol-5-yl)-5-(2-fluoro-6-trifluoromethyl-phenyl)-1H-benzimidazole hydrochloride] | 11.6 nM and 1.8 nM | 
Cn1nc(C(C)(C)C)c(Cl)c1-c1nc2cc(-c3c(C(F)(F)F)cccc3C(F)(F)F)ccc2[nH]1 [Compound 87, 5-(2,6-Bis-trifluoromethyl-phenyl)-2-(5-tert-butyl-4-chloro-2-methyl-2H-pyrazol-3-yl)-1H-benzimidazole hydrochloride] | 5.7 nM and 8.6 nM | 
Cn1nc(C(C)(C)C)c(Cl)c1-c1nc2cc(-c3c(F)cccc3OC(F)(F)F)ccc2[nH]1 [Compound 88, 2-(5-tert-Butyl-4-chloro-2-methyl-2H-pyrazol-3-yl)-5-(2-fluoro-6-trifluoromethoxy-phenyl)-1H-benzimidazole hydrochloride] | 3.6 nM and 9.7 nM | 
Cn1nc(-c2nc3cc(-c4ccccc4C(F)(F)F)ccc3[nH]2)cc1C1CCC1 [Compound 91, 2-(5-Cyclobutyl-1-methyl-1H-pyrazol-3-yl)-5-(2-trifluoromethyl-phenyl)-1H-benzimidazole] |  | 7
FC(F)(F)c1ccccc1-c1ccc2[nH]c(-c3cc(C4CCCC4)no3)nc2c1 [Compound 92, 2-(3-Cyclopentylisoxazol-5-yl)-5-(2-trifluoromethylphenyl)-1H-benzimidazole] | 24.5 nM | 
Cc1c(C(C)(C)C)nn(C)c1-c1nc2cc(-c3c(C(F)(F)F)cccc3C(F)(F)F)ccc2[nH]1 [Compound 97, 5-(2,6-Bis-trifluoromethyl-phenyl)-2-(5-tert-butyl-2,4-dimethyl-2H-pyrazol-3-yl)-1H-benzimidazole hydrochloride] | 6.9 nM | 
CC(C)(C)c1ncc(-c2nc3cc(-c4ccccc4C(F)(F)F)ccc3[nH]2)s1 [Compound 100, 2-(2-tert-Butyl-thiazol-5-yl)-5-(2-trifluoromethyl-phenyl)-1H-benzimidazole hydrochloride] | 33.7 nM | 91
CC(CO)n1nc(C(C)(C)C)cc1-c1nc2cc(-c3ccccc3C(F)(F)F)ccc2[nH]1 (stereo not drawn) [Compound 101, 2-{3-tert-Butyl-5-[5-(2-trifluoromethylphenyl)-1H-benzimidazol-2-yl]-pyrazol-1-yl}-propan-1-ol hydrochloride] |  | 33

Second part, the molecule after the results:

IC50 | inhibition at 0.2 µM [%] | SMILES
27 nM |  | Cn1nc(C(C)(C)C)c(Cl)c1-c1nc2cc(-c3ccccc3OC(F)(F)F)ccc2[nH]1 [Compound 51, 2-(5-tert-Butyl-4-chloro-2-methyl-2H-pyrazol-3-yl)-5-(2-trifluoromethoxyphenyl)-1H-benzimidazole sodium salt]
5.5 nM |  | Cc1ccccc1-c1ccc2[nH]c(-c3cc(C(C)(C)C)nn3C)nc2c1 [Compound 55, 2-(5-tert-Butyl-2-methyl-2H-pyrazol-3-yl)-5-o-tolyl-1H-benzimidazole trifluoroacetic acid salt]
10.7 nM |  | CCc1ccccc1-c1ccc2[nH]c(-c3cc(C(C)(C)C)nn3C)nc2c1 [Compound 56, 2-(5-tert-Butyl-2-methyl-2H-pyrazol-3-yl)-5-(2-ethyl-phenyl)-1H-benzimidazole trifluoroacetic acid salt]
14.6 nM and 20.7 nM |  | Cn1nc(C(C)(C)C)cc1-c1nc2cc(-c3ccccc3F)ccc2[nH]1 [Compound 57, 2-(5-tert-Butyl-2-methyl-2H-pyrazol-3-yl)-5-(2-fluoro-phenyl)-1H-benzimidazole trifluoroacetic acid salt]
8.3 nM |  | Cn1nc(C(C)(C)C)cc1-c1nc2cc(-c3ccccc3Cl)ccc2[nH]1 [Compound 59, 2-(5-tert-Butyl-2-methyl-2H-pyrazol-3-yl)-5-(2-chloro-phenyl)-1H-benzimidazole trifluoroacetic acid salt]
14.8 nM and 16.3 nM |  | CC(C)(C)c1cc(-c2nc3cc(-c4ccccc4Cl)ccc3[nH]2)on1 [Compound 68, 2-(3-tert-Butyl-isoxazol-5-yl)-5-(2-chloro-phenyl)-1H-benzimidazole trifluoroacetic acid salt]
10.9 nM |  | Cc1c(C(C)(C)C)nn(C)c1-c1nc2cc(-c3ccccc3F)ccc2[nH]1 [Compound 93, 2-(5-tert-Butyl-2,4-dimethyl-2H-pyrazol-3-yl)-5-(2-fluoro-phenyl)-1H-benzimidazole hydrochloride]
4.5 nM |  | Cc1c(C(C)(C)C)nn(C)c1-c1nc2cc(-c3ccccc3Cl)ccc2[nH]1 [Compound 94, 2-(5-tert-Butyl-2,4-dimethyl-2H-pyrazol-3-yl)-5-(2-chloro-phenyl)-1H-benzimidazole hydrochloride]
5.7 nM |  | Cc1c(C(C)(C)C)nn(C)c1-c1nc2cc(-c3c(F)cccc3F)ccc2[nH]1 [Compound 95, 2-(5-tert-Butyl-2,4-dimethyl-2H-pyrazol-3-yl)-5-(2,6-difluoro-phenyl)-1H-benzimidazole hydrochloride]
6.6 nM |  | Cc1c(C(C)(C)C)nn(C)c1-c1nc2cc(-c3c(F)cccc3OC(F)(F)F)ccc2[nH]1 [Compound 96, 2-(5-tert-Butyl-2,4-dimethyl-2H-pyrazol-3-yl)-5-(2-fluoro-6-trifluoromethoxy-phenyl)-1H-benzimidazole hydrochloride]
